In patent US7632830B2, “Lactam compounds and pharmaceutical use thereof” (Ajinomoto Co., Inc., priority 2000, dated 2009):
In brackets after ≈: the same amount, converted by molar mass.

Test system: adipose cells of rats
Test: Evaluation of the sugar-transporting activity (2-[14C(U)]-deoxy-D-glucose incorporation)
Format: cell-based
Conditions: rat adipose cells
Protocol: After the decapitation and venesection of 6 male Wistar rats (body weight: 150 to 200 g), an incision was made in the abdomen of each rat to extract 6 g in total of epididymal adipose tissues. The tissues were finely cut into 2 mm×2 mm pieces in 6 ml of KRH (Krebs-Ringer Hepes, composition: 130 mM of sodium chloride, 4.7 mM of potassium chloride, 1.2 mM of potassium dihydrogenphosphate, 1.2 mM of magnesium sulfate, 1 mM of calcium chloride and 25 mM of Hepes, pH=7.6) containing 5% of BSA (bovine serum albumin). 24 mg of collagenase (type I) was added thereto and the digestion treatment was conducted for about 40 minutes to obtain about 6 ml of isolated adipose cells. The collagenase was removed by the buffer exchange. 2% BSA/KRH solution was added to the residue for the re-suspension to obtain 45 ml of an adipose cell suspension.
The sugar-transporting activity of the compounds of the present invention was evaluated with reference to a method described in a literature [Annual Review of Biochemistry, Vol. 55, p. 1059 (1986)]. In the test, 200 μl of the adipose cell suspension was poured in each polystyrene test tube, 100 μl of the solution of the test substance (by dilution of 10 mg/ml substance dimethyl sulfoxide solution with KRH) was added thereto, and the obtained mixture was shaken and then cultured at 37° C. for 30 minutes.
The sugar-transporting activity was evaluated by measuring the quantity of 2-[^14C(U)]-deoxy-D-glucose incorporated per a unit time. Namely, 2-[^14C(U)]-deoxy-D-glucose was added to the adipose cell suspension after the pre-culture (the final concentration: 0.5 μCi/sample). 5 minutes after, cytochalasin B (final concentration: 10 μM) was added to the mixture to terminate the sugar transportation. After forming a dinonyl phthalate layer, the obtained mixture was centrifuged to separate the adipose cells from the buffer. The quantity of 2-[^14C(U)]-deoxy-D-glucose contained in the adipose cell layer was determined with a liquid scintillation counter to determine the quantity of the incorporated sugar. In this evaluation system, when insulin (100 nM) having the effect of increasing the sugar transportation was used, the effect was about 7 times as high as that obtained in the insulin-free control group.
The results of the evaluation of the sugar-transporting activity obtained by using 100 μg/ml of each compound of the present invention are shown in Table 6. The sugar transporting activity in Table 6 was evaluated on the basis of the reinforcing effect of insulin (100 nM). […] The symbols in Table 6 are as follows: • No: Example No., and • A: sugar transporting activity.
The results of the evaluation of the sugar-transporting activity obtained by using each compound of the present invention are shown in Table 7. The sugar transporting activity in Table 7 was determined in terms of the concentration (EC50: μg/ml) of a test compound, having a reinforcing effect corresponding to 50% on the basis of the reinforcing effect of insulin having a reinforcing effect of 100%.

[1] = concentration having a reinforcing effect corresponding to 50% of the reinforcing effect of insulin (100%)

| Compound | A: sugar transporting activity (EC50) [1] | also measured |
| --- | --- | --- |
| CCC(=O)N1[C@@H]2CCCC[C@H]2NC2=C(C(=O)NC2)[C@H]1c1ccccc1Cl [Example 141] | 3 µg/mL |  |
| CCCC(=O)N1[C@@H]2CCCC[C@H]2NC2=C(C(=O)NC2)[C@H]1c1ccccc1Cl [Example 142] | 4 µg/mL |  |
| O=C1NCC2=C1[C@@H](c1ccccc1Cl)N(C(=O)CC(F)(F)F)[C@@H]1CCCC[C@H]1N2 [Example 143] | 0.5 µg/mL |  |
| COCC(=O)N1[C@@H]2CCCC[C@H]2NC2=C(C(=O)NC2)[C@H]1c1ccccc1Cl [Example 144] | 5 µg/mL |  |
| CCOCC(=O)N1[C@@H]2CCCC[C@H]2NC2=C(C(=O)NC2)[C@H]1c1ccccc1Cl [Example 145] | 10.7 µg/mL |  |
| COC(=O)CC(=O)N1[C@@H]2CCCC[C@H]2NC2=C(C(=O)NC2)[C@H]1c1ccccc1Cl [Example 146] | 2 µg/mL |  |
| COC(=O)N1[C@@H]2CCCC[C@H]2NC2=C(C(=O)NC2)[C@H]1c1ccccc1Cl [Example 147] | 2.4 µg/mL |  |
| CCC(=O)N1[C@@H]2CCCC[C@H]2NC2=C(C(=O)NC2)[C@H]1c1ccccc1F [Example 149] | 2 µg/mL |  |
| CCOCC(=O)N1[C@@H]2CCCC[C@H]2NC2=C(C(=O)NC2)[C@H]1c1ccccc1F [Example 150] | 2 µg/mL |  |
| COC(=O)N1[C@@H]2CCCC[C@H]2NC2=C(C(=O)NC2)[C@H]1c1ccccc1F [Example 151] | 2 µg/mL |  |
| CCC(=O)N1[C@@H]2CCCC[C@H]2NC2=C(C(=O)NC2)[C@H]1c1ccccc1 [Example 154] | 1.5 µg/mL |  |
| CCOCC(=O)N1[C@@H]2CCCC[C@H]2NC2=C(C(=O)NC2)[C@H]1c1ccccc1 [Example 155] | 2.7 µg/mL |  |
| COC(=O)N1[C@@H]2CCCC[C@H]2NC2=C(C(=O)NC2)[C@H]1c1ccccc1 [Example 156] | 2 µg/mL |  |
| CC(=O)N1[C@@H]2CCCC[C@H]2NC2=C(C(=O)NC2)[C@H]1c1ccccc1N [Example 158] | 12 µg/mL |  |
| COc1ccc([C@@H]2C3=C(CNC3=O)N[C@@H]3CCCC[C@H]3N2C(C)=O)cc1 [Example 160] | 4.4 µg/mL |  |
| CC(=O)N1[C@@H]2CCCC[C@H]2NC2=C(C(=O)NC2)[C@H]1c1ccc(Br)cc1 [Example 161] | 17 µg/mL |  |
| CCOCC(=O)N1[C@@H]2CCCC[C@H]2NC2=C(C(=O)NC2)[C@H]1c1ccc(Cl)cc1 [Example 163] | 6 µg/mL |  |
| CSc1ccccc1[C@@H]1C2=C(CNC2=O)N[C@@H]2CCCC[C@H]2N1C(=O)CO [Example 164] | 2 µg/mL |  |
| COc1ccccc1[C@@H]1C2=C(CNC2=O)N[C@@H]2CCCC[C@H]2N1C(=O)CCc1ncco1 [Example 166] | 0.064 µg/mL |  |
| CC(=O)N1[C@@H]2CCCC[C@H]2NC2=C(C(=O)NC2)[C@H]1c1ccc(Br)s1 [Example 180] |  | EC50 [1]: 19 µg/mL (≈ 46.3 µM) |
| insulin: insulin (100 nM) having the effect of increasing the sugar transportation; reference for the reinforcing effect [reference compound] |  | effect of increasing the sugar transportation relative to insulin-free control group (insulin 100 nM): about 7 times |

More lines, main results first:

| A: sugar transporting activity (EC50) [1] | Compound | also measured |
| --- | --- | --- |
| 0.10 µg/mL | CCOc1ccccc1[C@@H]1C2=C(CNC2=O)N[C@@H]2CCCC[C@H]2N1C(=O)CCc1ncco1 [Example 167] |  |
| 0.070 µg/mL | CSc1ccccc1[C@@H]1C2=C(CNC2=O)N[C@@H]2CCCC[C@H]2N1C(=O)CCc1ncco1 [Example 168] |  |
| 0.070 µg/mL | O=C1NCC2=C1[C@@H](c1ccccc1OC(F)(F)F)N(C(=O)CCc1nccs1)[C@@H]1CCCC[C@H]1N2 [Example 171] |  |
| 0.060 µg/mL | CCOc1ccccc1[C@@H]1C2=C(CNC2=O)N[C@@H]2CCCC[C@H]2N1C(=O)CCc1nccs1 [Example 172] |  |
| 0.060 µg/mL | CSc1ccccc1[C@@H]1C2=C(CNC2=O)N[C@@H]2CCCC[C@H]2N1C(=O)CCc1nccs1 [Example 173] |  |
| 0.050 µg/mL | COc1ccccc1[C@@H]1C2=C(CNC2=O)N[C@@H]2CCCC[C@H]2N1C(=O)CCc1ncc(C)s1 [Example 174] |  |
| 0.020 µg/mL | Cc1ccccc1[C@@H]1C2=C(CNC2=O)N[C@@H]2CCCC[C@H]2N1C(=O)CCc1ccccn1 [Example 175] |  |
| 0.021 µg/mL | COc1ccccc1[C@@H]1C2=C(CNC2=O)N[C@@H]2CCCC[C@H]2N1C(=O)CCc1ccccn1 [Example 176] |  |
| 0.10 µg/mL | COc1ccccc1[C@@H]1C2=C(CNC2=O)N[C@@H]2CCCC[C@H]2N1C(=O)CCc1ncccn1 [Example 177] |  |
